Patent publication US10597388B2, “Pyridazinone herbicides” (FMC CORPORATION, priority 2014, dated 2020)

How the values were obtained:
Format in all cases: in vivo
[1] = tested on: blackgrass (Alopecurus myosuroides); assay: Test A greenhouse herbicide test, postemergence; conditions: for Plant response rating, Blackgrass: 125 g ai/ha; for Blackgrass plant response rating: 500 g ai/ha, 0 to 100 scale, 0 is no effect, 100 is complete control
In short: (§1)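 Scores are visual injury ratings from 0 (no effect) to 100 (complete control) versus untreated plants, taken roughly 10 d after treatment in the greenhouse. Treatment was postemergence, on one- to two-leaf plants 2–10 cm high growing in a loam soil/sand mix.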

[2] = tested on: galium (catchweed bedstraw, Galium aparine); assay: Test A greenhouse herbicide test, postemergence; conditions: for Plant response rating, Galium: 125 g ai/ha; for Galium plant response rating: 500 g ai/ha, 0 to 100 scale, 0 is no effect, 100 is complete control
In short: as §1

corn (Zea mays) = assay: Test A greenhouse herbicide test, pre- and postemergence; conditions: Postemergence; for Plant response rating, Corn: 125 g ai/ha; for Corn plant response rating: 500 g ai/ha, 0 to 100 scale, 0 is no effect, 100 is complete control
From the text: (§2) Seeds of plant species selected from barnyardgrass (Echinochloa crus-galli), kochia (Kochia scoparia), ragweed (common ragweed, Ambrosia elatior), ryegrass, Italian (Italian ryegrass, Lolium multiflorum), crabgrass, large (large crabgrass, Digitaria sanguinalis), foxtail, giant (giant foxtail, Setaria faberii), momingglory (Ipomoea spp.), pigweed (Amaranthus retroflexus), velvetleaf (Abutilon theophrasti), wheat (Triticum aestivum), and corn (Zea mays) were planted into a blend of loam soil and sand and treated preemergence with a directed soil spray using test chemicals formulated in a non-phytotoxic solvent mixture which included a surfactant.
(§3) At the same time, plants selected from these crop and weed species and also blackgrass (Alopecurus myosuroides), and galium (catchweed bedstraw, Galium aparine) were planted in pots containing the same blend of loam soil and sand and treated with postemergence applications of test chemicals formulated in the same manner. Plants ranged in height from 2 to 10 cm and were in the one- to two-leaf stage for the postemergence treatment. Treated plants and untreated controls were maintained in a greenhouse for approximately 10 d, after which time all treated plants were compared to untreated controls and visually evaluated for injury. Plant response ratings, summarized in Table A, are based on a 0 to 100 scale where 0 is no effect and 100 is complete control. A dash (-) response means no test result.

kochia (Kochia scoparia) = assay: as above
From the text: as §2, §3

[3] = tested on: barnyardgrass (Echinochloa crus-galli); assay: as above
From the text: as §2, §3

[4] = tested on: ragweed (common ragweed, Ambrosia elatior); assay: as above
From the text: as §2, §3

[5] = tested on: pigweed (Amaranthus retroflexus); assay: as above
From the text: as §2, §3

[6] = tested on: wheat (Triticum aestivum); assay: as above; conditions: Postemergence; for Plant response rating, Wheat: 125 g ai/ha, 0 to 100 scale where 0 is no effect and 100 is complete control; for Wheat plant response rating: 500 g ai/ha, 0 to 100 scale, 0 is no effect, 100 is complete control
From the text: as §2, §3

[7] = tested on: ryegrass, Italian (Italian ryegrass, Lolium multiflorum); assay: as above
From the text: as §2, §3

[8] = tested on: foxtail, giant (giant foxtail, Setaria faberii); assay: as above
From the text: as §2, §3

[9] = tested on: barnyardgrass (Echinochloa crus-galli); assay: Test B flooded paddy test; conditions: 250 g ai/ha, Flood; visual rating on scale of 0 to 100 where 0 is no effect and 100 is complete control; 13 to 15 d after treatment
Method: (§4) Plant species in the flooded paddy test selected from rice (Oryza sativa), sedge, umbrella (small-flower umbrella sedge, Cyperus difformis), ducksalad (Heteranthera limosa), and barnyardgrass (Echinochloa crus-galli) were grown to the 2-leaf stage for testing. At time of treatment, test pots were flooded to 3 cm above the soil surface, treated by application of test compounds directly to the paddy water, and then maintained at that water depth for the duration of the test. Treated plants and controls were maintained in a greenhouse for 13 to 15 d, after which time all species were compared to controls and visually evaluated. Plant response ratings, summarized in Table B, are based on a scale of 0 to 100 where 0 is no effect and 100 is complete control. A dash (-) response means no test result.

rice (Oryza sativa) = assay: Test B flooded paddy test; conditions: 250 g ai/ha, Flood; visual rating on scale of 0 to 100 where 0 is no effect and 100 is complete control; 13 to 15 d after treatment
Method: as §4

[10] = tested on: ducksalad (Heteranthera limosa); assay: Test B flooded paddy test; conditions: 250 g ai/ha, Flood; visual rating on scale of 0 to 100 where 0 is no effect and 100 is complete control; 13 to 15 d after treatment
Method: as §4

[11] = tested on: sedge, umbrella (small-flower umbrella sedge, Cyperus difformis); assay: Test B flooded paddy test; conditions: 250 g ai/ha, Flood; visual rating on scale of 0 to 100 where 0 is no effect and 100 is complete control; 13 to 15 d after treatment
Method: as §4

[12] = visual rating after approx. 10 d, 0 to 100 scale (0 no effect, 100 complete control)
[13] = Postemergence, 125 g ai/ha, visual rating after approx. 10 d, 0 to 100 scale (0 no effect, 100 complete control)
[14] = Postemergence, 500 g ai/ha, 0 to 100 scale, 0 is no effect, 100 is complete control
[15] = Preemergence, 125 g ai/ha, 0 to 100 scale where 0 is no effect and 100 is complete control
[16] = Preemergence, 500 g ai/ha, 0 to 100 scale, 0 no effect, 100 complete control
[17] = Postemergence, 125 g ai/ha, 0 to 100 scale where 0 is no effect and 100 is complete control
[18] = 0 to 100 scale where 0 is no effect and 100 is complete control

Row | SMILES | Blackgrass plant response rating [1] | Galium plant response rating [2] | Corn plant response rating (corn (Zea mays)) | Kochia plant response rating (kochia (Kochia scoparia); [14]) | Kochia plant response rating (kochia (Kochia scoparia); [15]) | Plant response rating, Kochia (kochia (Kochia scoparia); [16]) | Barnyardgrass plant response rating [3, 14] | Barnyardgrass plant response rating [3, 15] | Plant response rating, Barnyardgrass [3, 16] | Ragweed plant response rating [4, 14] | Ragweed plant response rating [4, 15] | Plant response rating, Ragweed [4, 16] | Pigweed plant response rating [5, 14] | Pigweed plant response rating [5, 15] | Plant response rating, Pigweed [5, 16] | Plant response rating, Wheat [6] | Wheat plant response rating [6] | Plant response rating, Ryegrass, Italian [7, 17] | Ryegrass, Italian plant response rating [7, 14] | Ryegrass, Italian plant response rating [7, 15] | also measured
1 | Cn1ncc(O)c(-c2ccc(F)c3ccccc23)c1=O [Compound 24] | 50 | 100 | 0 | 80 | 30 | 50 | 50 | 30 | 60 | 60 | 0 | 0 | 90 | 70 | 90 | 30 | 70 | 70 | 90 | 80 | Plant response rating, Blackgrass [1, 12]: 30; Plant response rating, Galium [2, 12]: 80; Plant response rating, Corn (corn (Zea mays); [12]): 0; Plant response rating, Kochia (kochia (Kochia scoparia); [13]): 70; Plant response rating, Barnyardgrass [3, 13]: 40; Plant response rating, Ragweed [4, 13]: 30; Plant response rating, Pigweed [5, 13]: 70; Plant response rating, Ryegrass, Italian [7, 16]: 80; Plant response rating, Foxtail, Giant [8, 13]: 10; Foxtail, Giant plant response rating [8, 14]: 60; Foxtail, Giant plant response rating [8, 15]: 60; Plant response rating, Foxtail, Giant [8, 16]: 80; Plant response rating, Barnyardgrass [9]: 0; Plant response rating, Rice (rice (Oryza sativa)): 0; Plant response rating, Ducksalad [10]: 0; Plant response rating, Sedge, Umbrella [11]: 0
2 | Cc1ccc2c(c1)c(-c1c(O)c(C)nn(C)c1=O)c(C)n2C [Compound 31] | 20 | 70 | 0 | 0 | 0 | 0 | 10 | 0 | 0 | 20 | 0 | 30 | 40 | 0 | 0 | 0 | 0 | 0 | 0 | 0 | Plant response rating, Blackgrass [1, 12]: 0; Plant response rating, Galium [2, 12]: 20; Plant response rating, Corn (corn (Zea mays); [12]): 0; Plant response rating, Kochia (kochia (Kochia scoparia); [13]): 0; Plant response rating, Barnyardgrass [3, 13]: 0; Plant response rating, Ragweed [4, 13]: 0; Plant response rating, Pigweed [5, 13]: 20; Plant response rating, Ryegrass, Italian [7, 16]: 0; Plant response rating, Foxtail, Giant [8, 13]: 0; Foxtail, Giant plant response rating [8, 14]: 10; Foxtail, Giant plant response rating [8, 15]: 0; Plant response rating, Foxtail, Giant [8, 16]: 0; Plant response rating, Barnyardgrass [9]: 0; Plant response rating, Rice (rice (Oryza sativa)): 0; Plant response rating, Ducksalad [10]: 0; Plant response rating, Sedge, Umbrella [11]: 0
3 | Cc1sc2ccccc2c1-c1c(O)cnn(C)c1=O [Compound 48] | 30 | 90 | 0 | 80 | 0 | 10 | 50 | 0 | 0 | 20 | 10 | 60 | 70 | 30 | 30 | 0 | 0 | 50 | 60 | 20 | Plant response rating, Blackgrass [1, 18]: 0; Plant response rating, Galium [2, 18]: 90; Plant response rating, Corn (corn (Zea mays); [18]): 0; Plant response rating, Kochia (kochia (Kochia scoparia); [17]): 70; Plant response rating, Barnyardgrass [3, 17]: 10; Plant response rating, Ragweed [4, 17]: 0; Plant response rating, Pigweed [5, 17]: 60; Plant response rating, Ryegrass, Italian [7, 16]: 60; Plant response rating, Foxtail, Giant [8, 17]: 50; Foxtail, Giant plant response rating [8, 14]: 60; Foxtail, Giant plant response rating [8, 15]: 0; Plant response rating, Foxtail, Giant [8, 16]: 10; Plant response rating, Barnyardgrass [9]: 0; Plant response rating, Rice (rice (Oryza sativa)): 0; Plant response rating, Ducksalad [10]: 0; Plant response rating, Sedge, Umbrella [11]: 0
4 | Cn1ncc(O)c(-c2cccc3ccccc23)c1=O [Compound 49] | 30 | 80 | 0 | 10 | 0 | 0 | 20 | 0 | 0 | 10 | 0 | 10 | 40 | 0 | 40 | 0 | 0 | 30 | 50 | 0 | Plant response rating, Blackgrass [1, 18]: 10; Plant response rating, Galium [2, 18]: 50; Plant response rating, Corn (corn (Zea mays); [18]): 0; Plant response rating, Kochia (kochia (Kochia scoparia); [17]): 0; Plant response rating, Barnyardgrass [3, 17]: 0; Plant response rating, Ragweed [4, 17]: 0; Plant response rating, Pigweed [5, 17]: 20; Plant response rating, Ryegrass, Italian [7, 16]: 30; Plant response rating, Foxtail, Giant [8, 17]: 0; Foxtail, Giant plant response rating [8, 14]: 20; Foxtail, Giant plant response rating [8, 15]: 0; Plant response rating, Foxtail, Giant [8, 16]: 10; Plant response rating, Barnyardgrass [9]: 0; Plant response rating, Rice (rice (Oryza sativa)): 0; Plant response rating, Ducksalad [10]: 0; Plant response rating, Sedge, Umbrella [11]: 0
5 | COc1ccc2sc(C)c(-c3c(O)c(C)nn(C)c3=O)c2c1 [Compound 53] | 30 | 80 | 0 | 80 | 50 | 70 | 20 | 0 | 20 | 70 | 0 | 50 | 70 | 50 | 70 | 0 | 20 | 40 | 70 | 10 | Plant response rating, Blackgrass [1, 18]: 0; Plant response rating, Galium [2, 18]: 60; Plant response rating, Corn (corn (Zea mays); [18]): 0; Plant response rating, Kochia (kochia (Kochia scoparia); [17]): 70; Plant response rating, Barnyardgrass [3, 17]: 0; Plant response rating, Ragweed [4, 17]: 60; Plant response rating, Pigweed [5, 17]: 60; Plant response rating, Ryegrass, Italian [7, 16]: 50; Plant response rating, Foxtail, Giant [8, 17]: 0; Foxtail, Giant plant response rating [8, 14]: 30; Foxtail, Giant plant response rating [8, 15]: 50; Plant response rating, Foxtail, Giant [8, 16]: 50; Plant response rating, Barnyardgrass [9]: 0; Plant response rating, Rice (rice (Oryza sativa)): 0; Plant response rating, Ducksalad [10]: 0; Plant response rating, Sedge, Umbrella [11]: 0
